Patent publication US20240173317A1, “METHODS FOR TREATING PROGRESSIVE FAMILIAL INTRAHEPATIC CHOLESTASIS” (MIRUM PHARMACEUTICALS, INC., priority 2022, published 2024)

How the values were obtained:
subjects with PFIC = assay: ItchRO(Obs) pruritus severity, MARCH-PFIC Phase 3 study; type: in vivo, human; details: for percentage of pruritus response (ItchRO(Obs) responders): Week 15 to Week 26
Description: The primary analysis was conducted in the intent-to-treat (ITT) population of subjects with documented biallelic mutations in ABCB11 (PFIC 2), based on standard-of-care genotyping (primary cohort criteria). Subjects with a predicted complete absence of bile salt excretion pump (BSEP) function based on the type of ABCB11 mutation (PFIC 2), as determined by a standard-of-care genotype, were excluded from the primary cohort and could enroll only in the supplemental cohort. Subjects with other PFIC subtypes (e.g., PFIC 1/3/4/5/6, or new PFIC mutation variants) or postsurgical subjects (e.g., after internal or external biliary diversion surgery or subjects with reversal of biliary diversion surgery) were enrolled in a separate supplemental cohort and evaluated as part of secondary and exploratory analyses.
Subjects in the primary cohort were randomized in a 1:1 ratio to receive maralixibat or placebo. Subjects in the supplemental cohort were randomized in a 1:1 ratio to receive maralixibat or placebo within the following subcohorts: a) PFIC 1; b) PFIC 3; c) all other supplemental cohort subjects. All subjects received study treatment in addition to standard-of-care therapy, including antipruritic concomitant treatment.
For subjects assigned to maralixibat, the Dose Escalation period consisted of the following weekly steps: Dose level 1, 150 μg/kg maralixibat BID for 1 week; Dose level 2, 300 μg/kg maralixibat BID for 1 week; Dose level 3, 450 μg/kg maralixibat BID for 1 week; Dose level 4, 600 μg/kg maralixibat BID for the remaining duration of the study.
Efficacy. Severity of pruritus was assessed using the Itch caregiver/patient reported outcome measure (ItchRO™) administered as a twice daily electronic diary. Caregivers for all subjects completed the Observer instrument: ItchRO(Obs). The ItchRO(Obs) was completed by the same caregiver for consistency, whenever possible. Only subjects ≥9 years of age at screening completed the patient instrument: ItchRO(Pt). […] Pruritus was assessed and recorded twice daily, via ItchRO, beginning with the day after the screening visit and every day throughout the duration of the study. The severity of pruritus was measured by the completion of the first question in the ItchRO(Obs) (how severe were your child's itch-related symptoms) or ItchRO(Pt) (how itchy did you feel). The frequency of pruritus was measured by completion of the third question in the ItchRO(Obs) (how much of the time was your child rubbing or scratching) or ItchRO(Pt) (how much of last night/today did feeling itchy make you rub or scratch). Caregivers and subjects rated the severity and frequency of pruritus using 5 choices to describe their itching condition. ItchRO(Pt) and ItchRO(Obs) have been previously described in Kamath, et al., “Development of a Novel Tool to Assess the Impact of Itching in Pediatric Cholestasis,” Patient, 11:69-82 (2018), which is hereby incorporated by reference in its entirety for all purposes.
For this study, the primary estimand is the improvement in pruritus measured as change from baseline in the average morning ItchRO(Obs) severity score in the maralixibat treatment group relative to the placebo group. The primary analysis on the primary efficacy endpoint was conducted in 1) participants with PFIC 2 who fulfill criteria for the primary cohort in the ITT population (non-truncated primary “B SEP cohort” or “Primary cohort” with N=31), 2) all PFIC participants (excluding the participants with prior history of surgery, heterozygous participants and unknown types, “All PFIC cohort” or “PFIC cohort” with N=64), and 3) all study participants cohort, including the participants with prior history of surgery, heterozygous participants and unknown types. A restricted maximum likelihood (REML)-based mixed-effects model for repeated measures […] was used as the primary analysis method. […]

participants with ALGS = assay: ItchRO(Obs) pruritus in participants with ALGS aged 16 years and older; type: in vivo, human
Description: All patients received the daily dose appropriate for their weight, with an adult maximum dose of 28.5 mg/d. ^bBefore age 16 years is defined as the last data point prior to turning 16 years of age. After age 16 years is defined as the first data point after turning 16 years of age.
FIGS. 31A and 31B show a change in ltchRO(Obs) (FIG. 31A) and sBA (FIG. 31B) for participants who initiated MRX treatment at <16 years of age (n=11). Of 11 participants, 9 had ItchRO(Obs) scores available for all time points and were included in the analysis. ^bItchRO(Obs) is a 0-4 scale with >1-point reduction considered clinically meaningful. Mean ItchRO(Obs) was rounded to 1 decimal place. Error bars represent SE. Significance was determined using student t test. ^cMean sBA was rounded to the nearest whole number. Error bars represent SE. ^dAverage of last 2 records prior to age 16 years. ^eAverage of first 2 records after age 16 years. ^fAverage of final 2 records.
FIGS. 32A and 32B show a change in ltchRO(Obs) (FIG. 32A) and sBA (FIG. 32B) for participants who Initiated MRX treatment at ≥16 years of age (n=3). ^aItchRO(Obs) is 0-4 scale with ≥1-point reduction considered clinically meaningful. ^bAverage of final two records.
The efficacy and safety of MRX in participants with ALGS aged ≥16 years transitioning to adult care and participant aged ≥16 years who initiate MRX treatment were studied (FIG. 30). […]

[1] = All PFIC cohort, Weeks 15-26, FIG. 6B
[2] = BSEP deficiency cohort, FIG. 7A
[3] = BSEP deficiency cohort, FIG. 7B
[4] = BSEP deficiency cohort, FIG. 17A
[5] = BSEP deficiency cohort, Weeks 15-26, FIG. 6A

CCCCC1(CCCC)CS(=O)(=O)c2ccc(N(C)C)cc2[C@@H](c2ccc(OCc3ccc(C[N+]45CCN(CC4)CC5)cc3)cc2)[C@H]1O [maralixibat, 1-(4-((4-((4R,5R)-3,3-dibutyl-7-(dimethylamino)-4-hydroxy-1,1-dioxido-2,3,4,5-tetrahydrobenzo[b]thiepin-5-yl)phenoxy)methyl)benzyl)-1,4-diazabicyclo[2.2.2]octan-1-ium]
difference from the placebo group, evening ItchRO[Obs] score (subjects with PFIC; All PFIC cohort, FIG. 8A): 1.157 point | reduction from baseline in pruritus evening ItchRO[Obs] score (subjects with PFIC; All PFIC cohort, FIG. 8A): 1.8 points | difference from the placebo group, maximum daily ItchRO[Obs] score (subjects with PFIC; All PFIC cohort, FIG. 8B): 1.198 point | reduction from baseline in maximum pruritus daily ItchRO[Obs] score (subjects with PFIC; All PFIC cohort, FIG. 8B): 1.9 points | percentage of pruritus response (ItchRO(Obs) responders) (subjects with PFIC; All PFIC cohort, FIG. 14A): 63.6% | difference from the placebo group, morning ItchRO[Obs] score (subjects with PFIC; [1]): 1.20 point | reduction from baseline in pruritus morning ItchRO[Obs] score (subjects with PFIC; [1]): 1.8 points | median proportion of reported days with an ItchRO(Obs) score of 0-1 (subjects with PFIC; All-PFIC (MRX n = 33), Weeks 15-26): 95% | difference from the placebo group, evening ItchRO[Obs] score (subjects with PFIC; [2]): 1.111 point | reduction from baseline in pruritus evening ItchRO[Obs] score (subjects with PFIC; [2]): 1.7 points | difference from the placebo group, maximum daily ItchRO[Obs] score (subjects with PFIC; [3]): 1.130 point | reduction from baseline in maximum pruritus daily ItchRO[Obs] score (subjects with PFIC; [3]): 1.8 points | difference vs placebo in proportion of pruritus responders (assessments ≤1) (subjects with PFIC; BSEP deficiency cohort, FIG. 16A): 0.344 | difference vs placebo in proportion of pruritus responders (assessments ≤1 or decrease ≥1) (subjects with PFIC; [4]): 0.398 | proportion of pruritus responders: proportion of assessments ≤1 or decrease ≥1 (subjects with PFIC; [4]): over 0.7 | percentage of pruritus response (ItchRO(Obs) responders) (subjects with PFIC; BSEP deficiency cohort, FIG. 13A): 57.1% | difference from the placebo group, morning ItchRO[Obs] score (subjects with PFIC; [5]): 1.089 point | reduction from baseline in pruritus morning ItchRO[Obs] score (subjects with PFIC; [5]): 1.7 points | proportion of pruritus responders: proportion of assessments ≤1 (subjects with PFIC; BSEP deficiency cohort, morning and evening, FIG. 16A): over 0.6 | difference from the placebo group, morning ItchRO[Obs] score (subjects with PFIC; FIC1 (PFIC 1) cohort, FIG. 9A): 1.136 point | reduction from baseline in pruritus morning ItchRO[Obs] score (subjects with PFIC; FIC1 (PFIC 1) cohort, FIG. 9A): 1.4 points | improvements in pruritus (weekly ItchRO(Obs) score) (subjects with PFIC; FIC1, MDR3, TJP2, MYO5B cohorts, FIG. 33A-B): statistically significant and clinically meaningful improvements | difference from the placebo group, morning ItchRO[Obs] score (subjects with PFIC; MDR3 (PFIC 3) cohort, FIG. 9B): 0.594 point | reduction from baseline in pruritus morning ItchRO[Obs] score (subjects with PFIC; MDR3 (PFIC 3) cohort, FIG. 9B): 1.8 points | difference vs placebo in proportion of pruritus responders (assessments ≤1) (subjects with PFIC; PFIC cohort, Baseline to Week 26, FIG. 16B, 27B): 0.345 | difference vs placebo in proportion of pruritus responders (assessments ≤1 or decrease ≥1) (subjects with PFIC; PFIC cohort, FIG. 17B): 0.380 | proportion of pruritus responders: proportion of assessments ≤1 or decrease ≥1 (subjects with PFIC; PFIC cohort, FIG. 17B): over 0.7 | response to treatment (subjects with PFIC; PFIC patients post surgery (full population)): significant response | improvements in pruritus severity (subjects with PFIC; full-study population, FIG. 35A): statistically significant and clinically meaningful improvements | improvements in pruritus (subjects with PFIC; patients with no-variant found, FIG. 35C): demonstrated improvements | pruritus change in individual t-BSEP patients (morning ItchRO(Obs)) (subjects with PFIC; t-BSEP (truncated PFIC2) patients, Baseline to Week 26, FIG. 41D): limited improvement in pruritus | improvements in pruritus (ItchRO(Obs)) (participants with ALGS; MRX during childhood, maintained into early adulthood, FIG. 31A): significant improvements | improvements in pruritus (ItchRO(Obs)) (participants with ALGS; participants receiving MRX in early adulthood, FIG. 32A): significant improvements
